Patent US8202856B2 (Merck Serono SA, priority 2007, dated 2012)
Counter-ions that a name gives are not always drawn.

The compounds below were run against S1P1 receptor (Homo sapiens, UniProt P21453) (assay: 35S-GTPγS binding, membranes from CHO cells expressing S1P1). Settings: CHO cell membranes expressing S1P1.
S1P1 receptor, sequence (P21453 whole entry): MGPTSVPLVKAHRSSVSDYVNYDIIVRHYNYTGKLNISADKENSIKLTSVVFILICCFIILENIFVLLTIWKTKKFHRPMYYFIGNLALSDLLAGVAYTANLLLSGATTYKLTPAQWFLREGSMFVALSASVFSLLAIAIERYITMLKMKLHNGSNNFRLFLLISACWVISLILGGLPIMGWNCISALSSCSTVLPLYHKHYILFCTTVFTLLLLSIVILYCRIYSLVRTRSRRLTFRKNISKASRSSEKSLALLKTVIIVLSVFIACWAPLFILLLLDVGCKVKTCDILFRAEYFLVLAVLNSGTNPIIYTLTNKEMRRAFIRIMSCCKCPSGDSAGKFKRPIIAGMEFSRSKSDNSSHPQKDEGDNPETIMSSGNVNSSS
Type: biochemical
Description: Receptor binding assay: Membranes were prepared from CHO cells expressing S1P1 or S1P3 for use in ligand and 35S-GTPTS binding studies. Cells were suspended in 50 mM TRIS, pH 7.4, 2 mM EDTA, 250 mM Sucrose (buffer A) and 1× Complete protease inhibitor cocktail (Roche), and disrupted at 4° C. by nitrogen decompression using a cell disruption bomb (Parr Instrument). Following centrifugation at 1000 RPM for 10 min at 4° C., the supernatant was suspended in buffer A and centrifuged again at 19000 RPM for 60 min at 4° C. The pellet was then suspended in 10 mM HEPES, pH 7.4, 1 mM EDTA, 250 mM Sucrose (Buffer B), and 1× Complete EDTA-free protease inhibitor cocktail and homogenized using a potter. Membranes were flash frozen in liquid nitrogen and stored at −80° C. [33P]sphingosine 1-phosphate (3000 Ci/mmol; American Radiolabeled Chemicals, Inc.) was added to test compounds in DMSO. Membranes and WGA SPA beads (GE Healthcare) were added to give a final volume of 100 μl in 96-well plates with assay concentrations of […] [33P]sphingosine 1-phosphate (respectively for S1P1 or S1P3), 50 mM HEPES, pH 7.5, 5 mM MgCl2, 100 mM NaCl, 0.4% fatty acid-free BSA, 1-5 μg/well of proteins and 100 μg/well of WGA SPA beads. Binding was performed for 60 min at room temperature on a shaker and bound radioactivity was measured on a PerkinElmer 1450 MicroBeta counter. Specific binding was calculated by subtracting remaining radioactivity in the presence of 1000-fold excess of unlabeled S1P. Binding data were analyzed using the GraphPad Prism program.
Measurements of ^35S-GTPγS Binding: Membranes (1 to 10 μg protein) prepared as described above, were incubated in 96-well Scintiplates (PerkinElmer) with test compounds diluted in DMSO, in 180 μl of 20 mM HEPES, pH 7.4, 10 mM MgCl2, 2 μg/well Saponin, 0.2% fatty acid free BSA (Assay buffer), 140 mM NaCl and 1.7 μM GDP. The assay was initiated with the addition of 20 μl of 1.5 nM [35S]-GTPγS (1100 Ci/mmol; GE Healthcare) in assay buffer. After 60 min incubation at 30° C. on a shaker, plates were centrifuged for 10 min at 2000 RPM. Supernatant was discarded and membrane bound radioactivity was measured on a PerkinElmer 1450 MicroBeta counter. Triplicate samples were averaged and expressed as response relative to S1P activation in absence of compound (n=2).
For COCc1c(-c2nc(-c3ccc(N)nc3)no2)nnn1-c1ccccc1F [Example 123, 5-{5-[1-(2-fluorophenyl)-5-(methoxymethyl)-1H-1,2,3-triazol-4-yl]-1,2,4-oxadiazol-3-yl}pyridin-2-amine], the EC50 was 0.475 µM.
With Oc1cccc(-c2noc(-c3nnn(-c4ccccc4F)c3-c3ccncc3)n2)c1 [Example 124, 3-{5-[1-(2-fluorophenyl)-5-pyridin-4-yl-1H-1,2,3-triazol-4-yl]-1,2,4-oxadiazol-3-yl}phenol] the EC50 was 0.023 µM.
With NCc1cccc(-c2noc(-c3nnn(-c4ccccc4F)c3-c3ccncc3)n2)c1 [Example 125, 1-(3-{5-[1-(2-fluorophenyl)-5-pyridin-4-yl-1H-1,2,3-triazol-4-yl]-1,2,4-oxadiazol-3-yl}phenyl)methanamine hydrochloride] the EC50 was 0.23 µM.
COc1ccc(-c2noc(-c3nnn(-c4ccccc4F)c3-c3ccncc3)n2)cn1 [Example 126, 5-{5-[1-(2-fluorophenyl)-5-pyridin-4-yl-1H-1,2,3-triazol-4-yl]-1,2,4-oxadiazol-3-yl}-2-methoxypyridine] gave an EC50 of 0.226 µM.
In the case of CN(CC(=O)O)Cc1ccc(-c2noc(-c3nnn(-c4ccccc4F)c3-c3ccncc3)n2)cc1 [Example 130, N-(4-{5-[1-(2-fluorophenyl)-5-pyridin-4-yl-1H-1,2,3-triazol-4-yl]-1,2,4-oxadiazol-3-yl}benzyl)-N-methylglycine], the EC50 is reported as 0.045 µM.
Compound CN(C)Cc1ccc(-c2noc(-c3nnn(-c4ccccc4F)c3-c3ccncc3)n2)cc1 [Example 131, 1-(4-{5-[1-(2-fluorophenyl)-5-pyridin-4-yl-1H-1,2,3-triazol-4-yl]-1,2,4-oxadiazol-3-yl}phenyl)-N,N-dimethylmethanamine] has an EC50 of 0.011 µM.
In the case of OCCNCc1cccc(-c2noc(-c3nnn(-c4ccccc4F)c3-c3ccncc3)n2)c1 [Example 132, 2-[(3-{5-[1(2-fluorophenyl)-5-pyridin-4-yl-1H-1,2,3-triazol-4-yl]-1,2,4-oxadiazol-3-yl}benzyl)amino]ethanol formate], the EC50 is reported as 0.383 µM.
CNCc1cccc(-c2noc(-c3nnn(-c4ccccc4F)c3-c3ccncc3)n2)c1 [Example 133, 1-(3-{5-[1-(2-fluorophenyl)-5-pyridin-4-yl-1H-1,2,3-triazol-4-yl]-1,2,4-oxadiazol-3-yl}phenyl)-N-methylmethanamine formate] showed an EC50 of 0.646 µM.
Compound OC1CCN(Cc2cccc(-c3noc(-c4nnn(-c5ccccc5F)c4-c4ccncc4)n3)c2)C1 (stereo not drawn) [Example 134, 1-(3-{5-[1-(2-fluorophenyl)-5-pyridin-4-yl-1H-1,2,3-triazol-4-yl]-1,2,4-oxadiazol-3-yl}benzyl)pyrrolidin-3-ol] has an EC50 of 0.758 µM.
Work on OC1CN(Cc2ccc(-c3noc(-c4nnn(-c5ccccc5F)c4-c4ccncc4)n3)cc2)C1 [Example 135, 1-(4-{5-[1-(2-fluorophenyl)-5-pyridin-4-yl-1H-1,2,3-triazol-4-yl]-1,2,4-oxadiazol-3-yl}benzyl)azetidin-3-ol] yielded an EC50 of 0.018 µM.
OCCNCc1ccc(-c2noc(-c3nnn(-c4ccccc4F)c3-c3ccncc3)n2)cc1 [Example 136, 2-[(4-{5-[1-(2-fluorophenyl)-5-pyridin-4-yl-1H-1,2,3-triazol-4-yl]-1,2,4-oxadiazol-3-yl}benzyl)amino]ethanol] gave an EC50 of 0.031 µM.
CC(=O)NC1CCN(Cc2ccc(-c3noc(-c4nnn(-c5ccccc5F)c4-c4ccncc4)n3)cc2)CC1 [Example 137, N-[1-(4-{5-[1-(2-fluorophenyl)-5-pyridin-4-yl-1H-1,2,3-triazol-4-yl]-1,2,4-oxadiazol-3-yl}benzyl)piperidin-4-yl]acetamide] was tested, and the EC50 was 0.223 µM.
Fc1ccccc1-n1nnc(-c2nc(-c3ccc(CN4CCC4)cc3)no2)c1-c1ccncc1 [Example 138, 4-[4-{3-[4-(azetidin-1-ylmethyl)phenyl]-1,2,4-oxadiazol-5-yl}-1-(2-fluorophenyl)-1H-1,2,3-triazol-5-yl]pyridine] gave an EC50 of 0.021 µM.
OCC1CCN(Cc2ccc(-c3noc(-c4nnn(-c5ccccc5F)c4-c4ccncc4)n3)cc2)CC1 [Example 139, [1-(4-{5-[1(2-fluorophenyl)-5-pyridin-4-yl-1H-1,2,3-triazol-4-yl]-1,2,4-oxadiazol-3-yl}benzyl)piperidin-4-yl]methanol] gave an EC50 of 0.118 µM.
Compound OCC1CCCN(Cc2ccc(-c3noc(-c4nnn(-c5ccccc5F)c4-c4ccncc4)n3)cc2)C1 (stereo not drawn) [Example 140, [1-(4-{5-[1-(2-fluorophenyl)-5-pyridin-4-yl-1H-1,2,3-triazol-4-yl]-1,2,4-oxadiazol-3-yl}benzyl)piperidin-3-yl]methanol] has an EC50 of 0.53 µM.
Work on OC1CCN(Cc2ccc(-c3noc(-c4nnn(-c5ccccc5F)c4-c4ccncc4)n3)cc2)CC1 [Example 141, 1-(4-{5-[1-(2-fluorophenyl)-5-pyridin-4-yl-1H-1,2,3-triazol-4-yl]-1,2,4-oxadiazol-3-yl}benzyl)piperidin-4-ol] yielded an EC50 of 0.074 µM.
OCC1CN(Cc2ccc(-c3noc(-c4nnn(-c5ccccc5F)c4-c4ccncc4)n3)cc2)CCO1 (stereo not drawn) [Example 143, [4-(4-{5-[1-(2-fluorophenyl)-5-pyridin-4-yl-1H-1,2,3-triazol-4-yl]-1,2,4-oxadiazol-3-yl}benzyl)morpholin-2-yl]methanol] gave an EC50 of 0.118 µM.
With CN(CCO)Cc1ccc(-c2noc(-c3nnn(-c4ccccc4F)c3-c3ccncc3)n2)cc1 [Example 144, 2-[(4-{5-[1-(2-fluorophenyl)-5-pyridin-4-yl-1H-1,2,3-triazol-4-yl]-1,2,4-oxadiazol-3-yl}benzyl)(methyl)amino]ethanol] the EC50 was 0.108 µM.
In the case of CC(=O)Nc1ccc(-c2noc(-c3nnn(-c4ccccc4F)c3-c3ccncc3)n2)cn1 [Example 145, N-(5-{5-[1-(2-fluorophenyl)-5-pyridin-4-yl-1H-1,2,3-triazol-4-yl]-1,2,4-oxadiazol-3-yl}pyridin-2-yl)acetamide], the EC50 is reported as 0.23 µM.
In the case of CS(=O)(=O)NC1CCN(Cc2ccc(-c3noc(-c4nnn(-c5ccccc5F)c4-c4ccncc4)n3)cc2)CC1 [Example 146, N-[1-(4-{5-[1-(2-fluorophenyl)-5-pyridin-4-yl-1H-1,2,3-triazol-4-yl]-1,2,4-oxadiazol-3-yl}benzyl)piperidin-4-yl]methanesulfonamide], the EC50 is reported as 0.36 µM.
In the case of COCCNCc1cccc(-c2noc(-c3nnn(-c4ccccc4F)c3-c3ccncc3)n2)c1 [Example 147, N-(3-{5-[1-(2-fluorophenyl)-5-pyridin-4-yl-1H-1,2,3-triazol-4-yl]-1,2,4-oxadiazol-3-yl}benzyl)-2-methoxyethanamine], the EC50 is reported as 0.577 µM.
Fc1ccccc1-n1nnc(-c2nc(-c3cccc(CN4CCC4)c3)no2)c1-c1ccncc1 [Example 148, 4-[4-{3-[3-(azetidin-1-ylmethyl)phenyl]-1,2,4-oxadiazol-5-yl}-1-(2-fluorophenyl)-1H-1,2,3-triazol-5-yl]pyridine formate] showed an EC50 of 0.508 µM.
In the case of Fc1ccc(Br)c(-c2noc(-c3nnn(-c4ccccc4F)c3-c3ccncc3)n2)c1 [Example 149, 4-[4-[3-(2-bromo-5-fluorophenyl)-1,2,4-oxadiazol-5-yl]-1-(2-fluorophenyl)-1H-1,2,3-triazol-5-yl]pyridine], the EC50 is reported as 0.039 µM.
For OCCc1ccc(-c2noc(-c3nnn(-c4ccccc4F)c3-c3ccncc3)n2)cc1 [Example 150, 2-(4-{5-[1(2-fluorophenyl)-5-pyridin-4-yl-1H-1,2,3-triazol-4-yl]-1,2,4-oxadiazol-3-yl}phenyl)ethanol], the EC50 was 0.043 µM.
